Measured values taken from paper PMC12670400, “LEKTI-Grafted Sunflower Trypsin Inhibitor: A Potential Therapeutic for Skin Diseases” (Journal of Medicinal Chemistry, 2025).
“Also recorded” adds a separate entry of the source. Bridge positions count the residues as written; N and C are the ends. Peptide text beside a SMILES is read from it.

How the values were obtained:
[1] = test system: KLK5-mediated PAR2 activation; test: PAR2-dependent intracellular calcium mobilization assay in N/TERT keratinocytes; format: cell-based; details: 2.5 to 40 μM, rKLK5 10 μM, preincubated one hour, n = 3, listed as lead 7
From the text: PAR2, a member of the G-protein-coupled receptor family expressed in keratinocytes, is a known downstream target of KLK5. KLK5 activates PAR2 by cleaving its extracellular N-terminal domain. This cleavage exposes a tethered ligand, which binds PAR2 intramolecularly to activate the receptor. , Activated PAR2 causes protein kinase C (PKC) and inositol 1,4,5-trisphosphate (IP3) activation, leading to calcium release from the endoplasmic reticulum, known as intracellular calcium mobilization. […] This delay is attributed to the time required for KLK5 to enzymatically cleave the extracellular N-terminal domain of PAR2, thereby exposing the tethered ligand sequence necessary to initiate receptor activation and downstream calcium signaling. […] This observation confirmed PAR2-dependent calcium mobilization and that rKLK5 could initiate PAR2 activation. The inhibition potential of lead 7 on KLK5 activity was then assessed by using this assay. rKLK5 was preincubated with lead 7 at concentrations of 2.5, 5, 20, or 40 μM for one hour before being applied to cultured keratinocytes, after which PAR2-dependent calcium mobilization was measured.
For Ki calculation, Km values for KLK5 and its substrate Boc-VPR-AMC were previously reported in the literature 8, 9, allowing the conversion from IC50 to Ki using the Cheng Prusoff equation10 Kᵢ = IC₅₀ / (1 + [S]/Kₘ) for single-site competitive binding.
Cell lines and tissue cultures
Keratinocytes isolated from the skin in a patient with genetic skin disease Netherton Syndrome (NS19) and in healthy donors (C42, C46, P8) were used in the study. […]
The immortalized keratinocyte cell line (N/TERT)13, 14 were used for the assay. […] The cells were counted, and 100 µL of the suspension, at a density of 600,000 cells/mL, was seeded into each well of a 96 -well microplate. […]
calcium signalling. […] Fluorescence excitation was set at 485 nm, and emission was recorded at 520 nm using SpectraMax® i3x plate reader. […]

[2] = test system: endogenous KLK5 of NS keratinocytes; test: KLK5 protease activity assay for culture medium of NS keratinocytes; format: biochemical, human; details: for KLK5 activity in NS keratinocytes medium after treatment: one hour, n = 3, untreated 51.9 ± 1.6 nmol/g
Protocol: To evaluate the inhibition of lead 7 on endogenous KLK5 activity, media collected from cultured NS keratinocytes and healthy donor keratinocytes were incubated with lead 7 at the final concentration of 100 nM, or 1 μM, or 10 μM for one hour. Media were then concentrated, and KLK5 activity was measured. […] There were significant differences in KLK5 activity before and after treatment (p < 0.05, n = 3). […] This may be because lead 7 exerts inhibitory effects only when KLK5 activity exceeds a certain threshold, which is not reached in keratinocytes from healthy donors. It was noted that the activity of KLK5 in NS was not reduced to the levels observed in normal keratinocytes. Two reasons might be behind this: (i) a higher lead 7 dose may be required, and (ii) the VPR-AMC substrate can be cleaved by a wider range of serine proteases. The remaining noninhibitory activity could be attributed to the presence of other trypsin-like serine proteases secreted in the cultured medium, which can hydrolyze the VPR-AMC substrate but are not inhibited by lead 7. […]
KLK5 protease activity assay for culture medium
Keratinocytes were seeded in 6 well plate with the density of 0.2 × 10⁶ cells per well and cultured in RM+ medium until they reached confluency. The culture media were changed to FBS free-RM+ media, and cells were continuously cultured. 48 hours after the medium changing, the culture media were harvested from the cell culture plates and centrifuged to remove dead cells. A volume of 180 µL of the supernatants was transferred to 1.5 mL Eppendorf tubes, followed by the addition of 20 µL of analogues in 1x PBS at different concentrations. The samples in which 20 µL of 1x PBS instead of the lead 7 were added were as untreated controls. These mixtures were incubated for one hours at 37 degrees Celsius and then processed for precipitation to concentrate the samples using ProteoExtract® Protein Precipitation Kit (Millipore, cat no. 539180). The precipitates were resuspended in 20 µL of 1X PBS (pH 8.0) for protease activity assessment using protease activity assay. 10uL of suspension from each sample was added in 96 well black plate. The enzymatic reaction was initiated by adding 100 µL of Boc-VPR-AMC substrate (final concentration 100 µM) to each well and RFU values in samples were measured. Protease activities were expressed as nmol/g by first converting RFU readings to KLK5 equivalent concentration activity using a KLK5 standard curve, followed by normalization to total protein content

With `C[C@@H](O)[C@@H]1NC(=O)[C@@H]2CSSC[C@H](NC(=O)[C@H](CCC(=O)O)NC(=O)[C@@H]3CCCN3C(=O)[C@@H]3CCCN3C(=O)[C@H](CC(N)=O)NC(=O)[C@H](CO)NC(=O)[C@H](CCCNC(=N)N)NC1=O)C(=O)N[C@@H](Cc1c[nH]c3ccccc13)C(=O)N1CCC[C@H]1C(=O)N[C@@H](CC(N)=O)C(=O)NCC(=O)N[C@@H](Cc1ccccc1)C(=O)N2` [compound 7] (cyclo(GFCTRSNPPECWPN); disulfide 3-11) the “PAR2-dependent calcium mobilization after rKLK5 preincubated with inhibitor” value [1] was “dose-dependent reduction; also recorded: progressive reduction in calcium release”, the “reduction in KLK5 activity, NS keratinocytes” value (“reduction in KLK5 activity” for short) ([2]; 100 nM) was 14.6% and the “KLK5 activity in NS keratinocytes medium after treatment” value (shortened to “KLK5 activity … after treatment”) ([2]; 100 nM) was 44.3 ± 2.7 nmol/g. For the same compound, the “reduction in KLK5 activity” value ([2]; 1 μM) was 35.5%, the “KLK5 activity … after treatment” value ([2]; 1 μM) was 33.5 ± 2.6 nmol/g and the “reduction in KLK5 activity” value ([2]; 10 μM) was 41.2%. For the same compound, the “KLK5 activity … after treatment” value ([2]; 10 μM) was 30.5 ± 1.7 nmol/g.
